What all share (format): in vivo, human
In data set [1] the test system is essential tremor (action tremor). The data set is described as follows: Treatment of patients with essential / action tremor without Parkinson's disease (case reports). As for the experimental part:
A person with a 20-year history of upper extremity action tremor with a frequency of approximately 8–12 hz. The patient bad no signs or symptoms of Parkinson's disease. […] The patient was started on mirtazapine (Remeron) at a dosage of 30 mg at night.
A person with a lifelong history of action tremor and anxiety but no signs or symptoms of Parkinson's disease was treated. […] Although the tremor always improved with a decrease in the anxiety (using SSRIs and benzodiazepines) the tremor persisted at an unsatisfactory level of severity.
In March, 1998, the patient began medication with a dosage of 15 mg of mirtazapine (Remeron) at night, then on their own volition, increased the administration of the same dose of mirtazapine to twice a day (for a total dose of 30 mg).
Thus, in the patient group involved in the study of Examples 1–6, a total of fifteen individuals was treated with mirtazapine, and of such population, twelve of the patients responded well to treatment with substantial tremor reduction. Of such total of fifteen patients, eight patients had essential tremor, and five of the eight responded. […] Three patients had levodopa-induced dyskinesias and all three responded.

Data set [2] deals with levodopa-induced dyskinesias. The data set is described as follows: Mirtazapine treatment of Parkinson's Disease patients with levodopa/dopamine-induced dyskinesias (case reports). As for the experimental part: A person with a 15 year history of Parkinson's Disease was treated. […] In August, 1997, the patient was started on mirtazapine (Remeron) at a dosage of 3 mg at night to aid in sleep. […] Throughout the regimen of treatment, the dose of Sinemet remained stable. […] In May 1998, they were started on mirtazapine (Remeron) at a dosage of 30 mg at night. […] No other medication had been changed.

Data set [3] has as its system Parkinsonian tremor (resting and action). Description: Mirtazapine treatment of patients with Parkinsonian tremor (case reports). How it is done:
A patient with mild Parkinson's Disease for 4 years experienced recurrent tremor that interfered with their ability to hold and deal cards while playing bridge. […] The patient was administered mirtazapine (Remeron®, Organon) at a dosage of 30 mg per day, taken at night for concomitant depression. […] A person with a nine-year history of Parkinson's Disease characterized by bradykinesia and marked right upper extremity resting tremor was treated. […] In May 1998, they were started on mirtazapine (Remeron) at a dosage of 30 mg at night. […] No other medication had been changed.

In a further data set the test system is tremor. The data set is described as follows: Patient group of Examples 1-6 treated for tremor / movement disorder (all types).
In the next data set the test system is sedation. Description: Sedation / drowsiness side effect in treated patients. How it is done: Two months later, the patient discontinued the administration of mirtazapine because they were oversleeping. Such oversleeping behavior was not believed to relate to the administration of mirtazapine, however. The patient in fact stopped and restarted the mirtazapine multiple times.
A person with a 15 year history of Parkinson's Disease was treated. […] In August, 1997, the patient was started on mirtazapine (Remeron) at a dosage of 3 mg at night to aid in sleep. The next morning the patient's spouse telephoned excitedly to say that the spouse had only shaken for 15 minutes. This positive development continued making their “on” time more functional.
In almost all cases, the improvement in the tremor behavior came literally overnight, that is, after an initial 30 mg dose taken in the evening before retiring. […] Patients were aware of an improvement immediately. During neurological exam, patients described the types of activities that they could perform before and after administration of mirtazapine (e.g., dealing cards, feeding oneself without spilling, being able to return to exercise classes as a consequence of the improvement experienced, etc.).

The mark [4] stands for this setting: Example 5, 15 mg twice a day (total 30 mg).
Setting [5] is: Example 3: person, 30 mg at night, no other medication changed.
The mark [6] stands for this setting: Example 3, mirtazapine restarted.
Where [7] appears, read: Example 3, several months later, mirtazapine stopped.

In the case of `CN1CCN2c3ncccc3Cc3ccccc3[C@H]2C1` (racemic) [mirtazapine, 1,2,3,4,10,14b-hexahydro-2-methyl-pyrazino [2,1-a]pyrido [2,3-c]benzazepine], in data set [1] (Example 4: person, 20-year upper extremity action tremor, 30 mg at night), the “postural and kinetic tremors on physical exam” value is listed as “greatly reduced”. In addition, the “patient-reported change in action tremor” value in data set [1] (Example 5: person, action tremor and anxiety, 15 mg twice a day (total 30 mg)) is on record as “improvement in the tremor especially when eating or drinking”. Besides, in data set [1] (setting [4]), the clinical exam entry is given as “improved marginally” and the handwriting result is “remained a problem”. Also, the “essential tremor patients who responded” value in data set [1] (Examples 1-6, of eight patients with essential tremor) was “five”. Besides, the “time the patient had shaken” value in data set [2] (Example 2: person, violent dyskinesias, 3 mg at night, reported the next morning) was 15 min. For the same compound, in data set [2] (Example 2, six months later, Sinemet dose stable), the “dopamine-induced dyskinesias after a new dopa agonist (ropirinole) was added” value is listed as “no increase in dopamine-induced dyskinesias”. Also, the “patient-reported change in dopamine-induced dyskinesias” value in data set [2] (setting [5]) is on record as “rapid improvement”. The “dyskinesia upon restarting medication” value in data set [2] (setting [6]) is “both movement disorders again responded”. Also, in data set [2] (setting [7]), the “dyskinesia after stopping medication” value was “return of the tremor and dyskinesia”. The “levodopa-induced dyskinesia patients who responded” value in data set [2] (Examples 1-6, of three patients) is on record as “three”. In data set [3] (Example 1: person, mild Parkinson's Disease, 30 mg per day at night, on Sinemet, within days of initial administration), the “patient-reported effect on resting and action tremor (holding cards)” value was “they could hold their cards without embarrassment”. In addition, the “tremor upon reinitiated administration” value in data set [3] (Example 1, mirtazapine reinitiated, Sinemet dose unchanged) was “again experienced resolution of the tremors”. In addition, the “tremor upon cessation of medication” value in data set [3] (Example 1, mirtazapine stopped, Sinemet dose unchanged) was “the tremor (resting and action) returned”. The “patient-reported change in Parkinsonian tremor” value in data set [3] (setting [5]) is recorded as “rapid improvement”. In data set [3] (setting [6]), the “tremor upon restarting medication” value is listed as “both movement disorders again responded”. Besides, in data set [3] (setting [7]), the “tremor after stopping medication” value is “return of the tremor”. Moreover, the “Parkinsonian resting tremor patients who responded” value in data set [3] (Examples 1-6, of four patients (fourth not yet returned for follow-up)) is listed as “three”. Besides, in the data set with tremor (Example 6, of ten additional patients), the “patients responding favorably with marked attenuation of tremor activity” value is “seven”. For the same compound, the “patients responding well with substantial tremor reduction” value in the data set on tremor (Examples 1-6, of a total of fifteen individuals) is “twelve”. In addition, the “onset of improvement in tremor behavior” value in the data set with tremor (in almost all cases, after an initial 30 mg dose taken in the evening) is given as “overnight”. Moreover, in the data set on sedation (Example 1, patient currently remaining on mirtazapine), the sedation side effect entry is “without experiencing any sedation side effect”. In addition, in the data set with sedation (Example 2, 3 mg at night), the “drowsiness during the day” value is “never reported that they were drowsy during the day”. Besides, the sedation entry in the data set with sedation (patients of the above-referenced examples) was “sedation did not occur”.
Consider `CC(C)NCC(O)COc1cccc2ccccc12` (stereo not shown) [propranolol], for which the “response of action tremor” value in data set [1] (Example 5 patient, before mirtazapine) is “seemed to respond to propranolol initially”.
